# Assay: Measurement of Log P values by HPLC on reversed phase columns (EEC directive 79/831 Annex V.A8), methods [a], [b], [c]
# Assay type: physicochemical
# Conditions: for chromatographic logP: reversed-phase HPLC column
# [1] = method [a]: LC-UV, acidic range, 0.1% formic acid in water and acetonitrile as eluent (10% to 95% acetonitrile), Table 3, compounds of formula (1)
# [2] = method [a]: LC-UV, acidic range, 0.1% formic acid in water and acetonitrile as eluent, Table 5, compounds of formula (2)
# [3] = HPLC on reversed phase column, method [a]
# Protocol: Measurement of Log P values as provided herein was performed according to EEC directive 79/831 Annex V.A8 by HPLC (High Performance Liquid Chromatography) on reversed phase columns with the following methods: • ^[a]
smiles,measurement,setting,value
CNc1c(Cl)nnc(Oc2cccc(C3CC3)c2F)c1C(=O)O [Compound 1-116],LogP,[1],1.97^[a]
Cc1c(Cl)nnc(Oc2cccc(C(F)F)c2F)c1C(=O)O [Compound 1-117],LogP,[1],1.49^[a]
CCOC(=O)c1cc(Cl)nnc1Oc1cccc(Cl)c1F [Compound 1-119],chromatographic logP,[1],3.6
CCOC(=O)c1c(Oc2cccc(Cl)c2F)nnc(Cl)c1C [Compound 1-121],chromatographic logP,[1],3.88
Cc1c(Cl)nnc(Oc2cccc(Cl)c2F)c1C(=O)O [Compound 1-122],LogP,[1],1.68^[a]
COC(=O)c1cc(Cl)nnc1Oc1cccc(C(F)F)c1 [Compound 1-124],chromatographic logP,[1],2.76
Cc1cc(C(=O)O)c(Oc2cccc(C(F)(F)F)c2)nn1 [Compound 1-125],LogP,[1],1.92^[a]
O=C(O)c1cc(I)nnc1Oc1cccc(C(F)(F)F)c1 [Compound 1-127],LogP,[1],2.08^[a]
CCOC(=O)c1cc(Cl)nnc1Oc1cccc(Br)c1 [Compound 1-130],chromatographic logP,[1],3.65
C#Cc1ccc(C(F)(F)CN)c(C)c1 [Compound 2-01],LogP,[2],0.93^[a]
Cc1cc(C)c(C(F)(F)CN)c(F)c1 [Compound 2-03],LogP,[2],0.95^[a]
NCC(F)(F)c1cccc(Br)c1Cl [Compound 2-04],LogP,[2],0.87^[a]
"O=C(NCC(F)(F)c1ccc(Br)cc1Cl)c1cc(Cl)nnc1Cl [Compound 3-10, N-[2-(4-bromo-2-chloro-phenyl)-2,2-difluoro-ethyl]-3,6-dichloro-pyridazine-4-carboxamide]",chromatographic logP,method [a],3.29
same,chromatographic logP,method [b],3.24
CC=Cc1cccc(O)c1F [Compound 4-01],LogP,"method [a]: LC-UV, acidic range, 0.1% formic acid in water and acetonitrile as eluent, Table 9, compounds of formula (4)",2.33^[a]
"Cc1ccc(C(F)(F)CNC(=O)c2cc(Cl)nnc2Oc2cccc(C(F)(F)F)c2)c(C)c1 [Compound I-014, 6-chloro-N-[2-(2,4-dimethylphenyl)-2,2-difluoro-ethyl]-3-[3-(trifluoromethyl)phenoxy]pyridazine-4-carboxamide]",chromatographic logP,[3],4.46
"Cc1ccc(C(F)(F)CNC(=O)c2c(Oc3cccc(C(F)(F)F)c3)nnc(Cl)c2I)c(C)c1 [Compound I-020, 6-chloro-N-[2-(2,4-dimethylphenyl)-2,2-difluoro-ethyl]-5-iodo-3-[3-(trifluoromethyl)phenoxy]pyridazine-4-carboxamide]",chromatographic logP,[3],4.61
"COCCc1c(Cl)nnc(Oc2cccc(C(F)(F)F)c2)c1C(=O)NCC(F)(F)c1ccc(Br)cc1Cl [Compound I-070, N-[2-(4-bromo-2-chloro-phenyl)-2,2-difluoro-ethyl]-6-chloro-5-(2-methoxyethyl)-3-[3-(trifluoromethyl)phenoxy]pyridazine-4-carboxamide]",chromatographic logP,[3],4.77
"Cc1ccc(CCNC(=S)c2cc(C)nnc2Oc2cccc(C(F)(F)F)c2)c(C)c1 [Compound I-094, N-[2-(2,4-dimethylphenyl)ethyl]-6-methyl-3-[3-(trifluoro-methyl)phenoxy]pyridazine-4-carbothioamide]",chromatographic logP,[3],4.69
"Cc1cc(C2CC2)ccc1C(F)(F)CNC(=O)c1cc(Cl)nnc1Oc1cccc(C(F)(F)F)c1 [Compound I-240, 6-chloro-N-[2-(4-cyclopropyl-2-methyl-phenyl)-2,2-difluoro-ethyl]-3-[3-(tri-fluoromethyl)phenoxy]pyridazine-4-carboxamide]",chromatographic logP,HPLC method [a],4.77
"CCc1c(Cl)nnc(Oc2cccc(C(F)(F)F)c2)c1C(=O)NCC(F)(F)c1ccc(Cl)cc1 [Compound I-254, 6-chloro-N-[2-(4-chlorophenyl)-2,2-difluoro-ethyl]-5-ethyl-3-[3-(trifluoromethyl)phenoxy]pyridazine-4-carboxamide]",chromatographic logP,HPLC method [a],4.51
"COC(=O)N(CC(F)(F)c1ccc(C)cc1C)C(=O)c1cc(Cl)nnc1Oc1cccc(C(F)(F)F)c1 [Compound I-335, methyl N-[6-chloro-3-[3-(trifluoromethyl)phenoxy]pyridazine-4-carbonyl]-N-[2-(2,4-dimethylphenyl)-2,2-difluoro-ethyl]carbamate]",chromatographic logP,HPLC method [a],5.19
